The subject of assay [1] is histamine-induced bronchoconstriction. In words: Effects on histamine-induced bronchoconstriction in anaesthetised guinea pigs (KRG). Format: in vivo, guinea pig (male Dunkin Hartley). The conditions noted are these: Cavia porcellus, iv, read-out: KRG ED50 (effective dose required to reduce the histamine-induced constriction in lung air volume by 50%).
Description: (A) Effects on histamine-induced bronchoconstriction in anaesthetised guinea pigs (KRG)
Male Dunkin Hartley guinea-pigs weighing 350-650 grams were anaesthetised with urethane (25% w/v solution in distilled water at 7.0 ml/kg i.p). […] The animals were ventilated with a ventilatory pump, stroke volume of 8 ml and frequency of 52 to maintain a lung inflation pressure of 10 cm of H2 O. Blood pressure was measured via a cannula in the right carotid artery connected to a Statham blood pressure transducer and a Devices M2 recorder. The test compounds were administered via the cannulated left jugular vein and washed in with 0.1 ml of 0.9% w/w NaCl in distilled water. The test product was administered immediately before the histamine which was used as the agonist.
Respiratory changes were recorded via a differential transducer connected to an SE 905 transducer/converter which in turn was connected to a Devices M2 recorder.
In assay [2] the test system is histamine induced resistance change. In words: Measurement of Pulmonary Compliance and Resistance (RMG), histamine induced resistance change. Format: in vivo, guinea pig (male Dunkin Hartley). The following applies: Cavia porcellus, iv; anaesthetised guinea-pigs (Hypnorm/Valium), gallamine pre-treated; compound via right jugular vein; forced oscillation; read-out: RMG ED50 (effective dose required to reduce the histamine induced resistance change by 50%). On the procedure:
(B) Measurement of Pulmonary Compliance and Resistance (RMG)
Male Dunkin Hartley guinea-pigs weighing between 400 and 650 g were anaesthetised with a combination of Hypnorm (1 ml/kg i.m.) and Valium (5 mg/kg i.p.). The trachea was cannulated and cannulae were inserted into the right jugular vein for the administration of compounds and left carotid artery for blood pressure measurement.
The animals were ventilated at a tidal volume of 6-8 ml and 10-12 cmH2 0 distension pressure was obtained. The respiratory rate was adjusted to 40-50/min. The animals were pre-treated with gallamine triethiodide (4 mg/kg i.v.) to maintain paralysis of respiratory muscles. Oxygen enrichment was applied to the inspiratory limb of the ventilator.
Respiratory resistance was measured by forced oscillation (Clay and Hughes 1980). Sinusodal wave forms of pressure were divided by flow at constant lung volumes to detect resistance changes. Sine wave production was achieved by a loudspeaker driven at 6-7 Hz through a pressure transducer, pneumotachograph and differential pressure transducer to detect pressure and flow contributions of the wave form. […] Drugs and analysis of activity were as described for the Konzett Rossler technique. Ref. Clay, T. P. and Hughes, J. M. B. (1980) J. Physiol. 308 427-437. The results given in Table V show the effective dose of each of the test compounds required to reduce the histamine induced resistance change by 50%.

Setting [3] is: anaesthetised guinea-pigs (urethane), test compound i.v. (jugular vein) immediately before histamine.

Each structure is given as a SMILES string. Where two headings read alike, the source gives them in different places. Some results are limits rather than exact numbers.

One may read the ED50 as the dose at which the effect has come halfway, by size or by number of responders. Take `CCN(CC)Cc1nnc2n(C)c(=O)c3ccccc3n12` [Example 26]: the figures for the ED50 in assay [1] (setting [3]) and in assay [2] were 3.75 mg/kg and 1 mg/kg, respectively. On to `CCCNCc1nnc2n(CCC)c(=O)c3ccccc3n12` [Example 10], for which the ED50 in assay [1] (setting [3]) stood at 1.97 mg/kg. Regarding `Cn1c(=O)c2ccccc2n2c(CN3CCOCC3)nnc12` [Example 24], the results for the ED50 in assay [1] (setting [3]) and in assay [2] were 2.76 mg/kg and 1.8 mg/kg, respectively. Consider `CCCn1c(=O)c2ccccc2n2c(CN3CCCCCC3)nnc12` [Example 5], for which the ED50 in assay [1] (setting [3]) was 0.096 mg/kg; in assay [2] it was 0.3 mg/kg. Consider `C=CCn1c(=O)c2ccccc2n2c(CN3CCCCC3)nnc12` [Example 33, 4-allyl-1-piperidinomethyl[1,2,4]triazolo[4,3-a]quinazolin-5(4H)-one], for which, in assay [1] (setting [3]), the ED50 turned out to be 0.31 mg/kg. `CC(C)n1c(=O)c2ccccc2n2c(CN3CCCCCC3)nnc12` [Example 20]: the 50% effective dose (ED50) in assay [1] (setting [3]) came to 0.8 mg/kg. For `CC(C)n1c(=O)c2ccccc2n2c(CN3CCCCC3)nnc12` [Example 19], the ED50 in assay [1] (setting [3]) worked out at 0.185 mg/kg. Take `CCCCn1c(=O)c2ccccc2n2c(CN3CCCCC3)nnc12` [Example 21, 1-piperidinomethyl-4-n-butyl[1,2,4]triazolo[4,3-a]quinazolin-5(4H)-one]: the values for the ED50 in assay [1] (setting [3]) and in assay [2] were 0.11 mg/kg and 0.15 mg/kg, respectively. For `CCn1c(=O)c2ccccc2n2c(CN3CCCCC3)nnc12` [Example 29, 1-piperidinomethyl-4-ethyl[1,2,4]triazolo[4,3-a]quinazolin-5 (4H)-one], in that order: 0.35 mg/kg and 0.5 mg/kg.

As for `CCCn1c(=O)c2ccccc2n2c(CN(CC)CC)nnc12` [Example 2], in assay [2], the 50% effective dose (ED50) came out at 0.5 mg/kg. With `CCCn1c(=O)c2ccccc2n2c(CN3CC4CCC(CC4)C3)nnc12` [Example 7], the ED50 in assay [1] amounted to 0.33 mg/kg. On to `CCCn1c(=O)c2ccccc2n2c(CNC3CCCCC3)nnc12` [Example 11], for which, in assay [1] (setting [3]), the ED50 amounted to 1.8 mg/kg.

With `CCCn1c(=O)c2ccccc2n2c(CN3CCCC3)nnc12` [Example 4], the ED50 in assay [1] (setting [3]) came to 2 mg/kg. Consider `CN1CCN(Cc2nnc3n(C)c(=O)c4ccccc4n23)CC1` [Example 27], for which the median effective dose (ED50) in assay [2] amounted to 0.8 mg/kg.

Consider `O=c1c2ccccc2n2c(CN3CCCCC3)nnc2n1-c1ccccc1` [Example 31], for which the 50% effective dose (ED50) in assay [1] (setting [3]) came out at 0.58 mg/kg. On to `CCCn1c(=O)c2ccccc2n2c(CN3CC(C)CC(C)C3)nnc12` (centres unmarked) [Example 8], for which the ED50 in assay [1] (setting [3]) was 1 mg/kg. In the case of `CCCCn1c(=O)c2ccccc2n2c(CN3CCCCCC3)nnc12` [Example 22, 1-(2,3,4,5,6,7,-hexahydroazepino)methyl-4-n-butyl[1,2,4]triazolo[4,3-a] quinazolin-5(4H)-one], in assay [1] (setting [3]), the ED50 amounted to 0.84 mg/kg.

On to `CCCCNCc1nnc2n(CCC)c(=O)c3ccccc3n12` [Example 12], for which the 50% effective dose (ED50) in assay [1] (setting [3]) turned out to be 1.3 mg/kg. `CCCn1c(=O)c2ccccc2n2c(CN3CCCCC3)nnc12.Cl.O` [Example 1, 1-Piperidinomethyl-4-n-propyl[1,2,4]triazolo[4,3-a]quinazolin-5(4H)-one hydrochloride, monohydrate]: the ED50 in assay [1] (setting [3]) is 0.12 mg/kg. Take `CCCn1c(=O)c2ccccc2n2c(CN3CCN(C)CC3)nnc12` [Example 3]: in assay [1] (setting [3]), the ED50 was 5.28 mg/kg. Still for that read-out and setting: the same measure for `CCCCN(CCCC)Cc1nnc2n(CCC)c(=O)c3ccccc3n12` [Example 14]: 2.9 mg/kg; for `CCCn1c(=O)c2ccccc2n2c(CN3CCN(c4ccccc4)CC3)nnc12` [Example 6]: 5 mg/kg. Consider `CCN(CC)Cc1nnc2n(CC)c(=O)c3ccccc3n12` [Example 30], for which the 50% effective dose (ED50) in assay [2] stood at 1 mg/kg. With `Cn1c(=O)c2ccccc2n2c(CN3CCCCC3)nnc12` [Example 23], the 50% effective dose (ED50) is over 1 mg/kg in assay [1] (setting [3]) and 1 mg/kg in assay [2].

With `CCOC(=O)N1CCN(Cc2nnc3n(C)c(=O)c4ccccc4n23)CC1` [Example 25], the ED50 in assay [1] (setting [3]) is 5 mg/kg; in assay [2] it was 3.5 mg/kg.

The record behind these values is patent US4472400A, “Triazoloquinazolones having antihistaminic and bronchospasmolytic activity” (Roussel Uclaf, priority 1981, dated 1984).
